{"source": "ChEMBL document CHEMBL1201862", "about": "“PubChem BioAssay data set” (2004)", "key": {"[1]": {"target": "Estrogen receptor (Homo sapiens, UniProt P03372)", "sequence (P03372 whole entry)": "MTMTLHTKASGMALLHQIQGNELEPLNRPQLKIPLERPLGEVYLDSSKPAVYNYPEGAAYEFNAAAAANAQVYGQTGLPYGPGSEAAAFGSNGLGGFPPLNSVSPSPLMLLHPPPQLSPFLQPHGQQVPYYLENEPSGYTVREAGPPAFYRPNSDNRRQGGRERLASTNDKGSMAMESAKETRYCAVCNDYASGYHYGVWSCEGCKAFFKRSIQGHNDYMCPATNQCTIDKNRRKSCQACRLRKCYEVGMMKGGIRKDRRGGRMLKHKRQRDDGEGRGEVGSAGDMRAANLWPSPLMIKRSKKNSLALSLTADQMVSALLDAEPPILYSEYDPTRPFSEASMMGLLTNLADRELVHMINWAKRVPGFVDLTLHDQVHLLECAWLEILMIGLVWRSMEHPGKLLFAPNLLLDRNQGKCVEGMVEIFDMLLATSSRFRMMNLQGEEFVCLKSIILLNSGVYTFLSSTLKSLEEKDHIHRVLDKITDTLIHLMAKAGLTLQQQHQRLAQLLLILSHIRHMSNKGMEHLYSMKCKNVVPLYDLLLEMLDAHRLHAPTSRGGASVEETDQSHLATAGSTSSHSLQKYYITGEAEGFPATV"}, "[2]": {"target": "FAD-linked sulfhydryl oxidase ALR (Homo sapiens, UniProt P55789)", "sequence (P55789 whole entry)": "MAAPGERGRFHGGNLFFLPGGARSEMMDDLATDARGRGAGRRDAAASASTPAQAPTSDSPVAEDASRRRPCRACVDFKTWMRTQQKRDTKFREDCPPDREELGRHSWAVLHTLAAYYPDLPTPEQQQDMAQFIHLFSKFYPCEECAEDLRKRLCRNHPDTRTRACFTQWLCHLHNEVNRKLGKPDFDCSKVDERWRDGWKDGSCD", "experiment": "ALR-catalysed DTT oxidation blockers – biochemical, H2O2 detection, luminescence, cherry-pick, dose response (AID 493248)"}, "[3]": {"target": "Estrogen receptor beta (Homo sapiens, UniProt Q92731)"}, "[4]": {"target": "Neuropeptide Y receptor type 2 (Homo sapiens, UniProt P49146)", "sequence (P49146 whole entry)": "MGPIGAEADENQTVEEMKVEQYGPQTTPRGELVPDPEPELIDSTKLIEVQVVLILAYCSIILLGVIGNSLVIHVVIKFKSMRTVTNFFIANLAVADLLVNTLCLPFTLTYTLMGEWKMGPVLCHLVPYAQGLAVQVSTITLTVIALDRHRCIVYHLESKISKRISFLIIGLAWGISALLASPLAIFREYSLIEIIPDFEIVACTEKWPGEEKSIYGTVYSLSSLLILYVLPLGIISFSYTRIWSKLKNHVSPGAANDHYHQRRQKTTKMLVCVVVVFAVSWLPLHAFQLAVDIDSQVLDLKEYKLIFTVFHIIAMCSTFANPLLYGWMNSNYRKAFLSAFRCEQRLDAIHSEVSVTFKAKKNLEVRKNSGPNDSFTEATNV", "experiment": "IC50 for human NPY-Y2 blockade – cell-based, counter-screen for NPY-Y1 antagonist project, dose response (AID 1278)", "type": "functional"}, "[5]": {"target": "Neuropeptide Y receptor type 1 (Homo sapiens, UniProt P25929)", "sequence (P25929 whole entry)": "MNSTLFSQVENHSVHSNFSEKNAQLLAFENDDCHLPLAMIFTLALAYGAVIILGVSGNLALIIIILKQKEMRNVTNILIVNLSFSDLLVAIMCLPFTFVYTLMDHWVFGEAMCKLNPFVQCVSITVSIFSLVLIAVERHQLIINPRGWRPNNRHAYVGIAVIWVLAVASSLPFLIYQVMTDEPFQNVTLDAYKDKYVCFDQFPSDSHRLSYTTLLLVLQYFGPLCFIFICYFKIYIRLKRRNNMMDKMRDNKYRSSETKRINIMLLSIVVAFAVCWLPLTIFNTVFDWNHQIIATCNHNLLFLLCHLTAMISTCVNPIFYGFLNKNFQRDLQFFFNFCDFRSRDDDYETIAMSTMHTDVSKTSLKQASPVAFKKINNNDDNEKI", "experiment": "IC50 of human NPY-Y1 blockers – cell-based, dose response (AID 1277)", "type": "functional"}, "[6]": {"target": "Genome polyprotein (dengue virus type 2, UniProt P29990)", "sequence (P29990 2492-3391 limits assumed)": "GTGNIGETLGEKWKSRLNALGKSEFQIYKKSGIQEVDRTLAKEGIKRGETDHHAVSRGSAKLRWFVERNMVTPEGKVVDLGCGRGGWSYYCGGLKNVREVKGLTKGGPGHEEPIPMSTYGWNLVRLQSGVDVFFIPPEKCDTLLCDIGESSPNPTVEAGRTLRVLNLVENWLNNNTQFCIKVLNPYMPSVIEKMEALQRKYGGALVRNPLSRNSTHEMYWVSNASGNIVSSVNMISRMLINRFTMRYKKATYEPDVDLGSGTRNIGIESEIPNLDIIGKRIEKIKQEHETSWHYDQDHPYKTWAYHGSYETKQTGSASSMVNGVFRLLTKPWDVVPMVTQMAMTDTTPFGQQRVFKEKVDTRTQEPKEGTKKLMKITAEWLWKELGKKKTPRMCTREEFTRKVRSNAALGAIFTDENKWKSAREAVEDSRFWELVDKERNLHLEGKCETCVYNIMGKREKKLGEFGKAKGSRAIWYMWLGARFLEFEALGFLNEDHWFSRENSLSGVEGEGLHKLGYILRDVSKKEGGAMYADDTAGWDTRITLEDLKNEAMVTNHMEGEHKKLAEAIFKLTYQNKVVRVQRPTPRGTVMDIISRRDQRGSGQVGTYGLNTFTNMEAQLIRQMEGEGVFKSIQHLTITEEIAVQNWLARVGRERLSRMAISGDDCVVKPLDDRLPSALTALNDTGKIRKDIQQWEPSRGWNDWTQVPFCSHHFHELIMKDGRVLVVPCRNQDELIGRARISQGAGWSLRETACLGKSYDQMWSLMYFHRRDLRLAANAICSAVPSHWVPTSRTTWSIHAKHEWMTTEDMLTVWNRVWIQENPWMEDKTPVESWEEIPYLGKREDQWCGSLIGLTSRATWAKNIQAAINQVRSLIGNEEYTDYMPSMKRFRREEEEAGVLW", "experiment": "flavivirus cap methylation enzyme inhibition – biochemical, confirmation dose response, primary screen (AID 588689)", "type": "functional"}, "[7]": {"tested_on": "BJ", "experiment": "BJ-TERT fibroblast viability loss – cell-based, RAS-independent, luminescence, dose response (AID 1933)", "type": "functional", "conditions": "Homo sapiens"}, "[8]": {"target": "Voltage-dependent T-type calcium channel subunit alpha-1H (Homo sapiens, UniProt O95180)", "sequence (O95180 whole entry)": "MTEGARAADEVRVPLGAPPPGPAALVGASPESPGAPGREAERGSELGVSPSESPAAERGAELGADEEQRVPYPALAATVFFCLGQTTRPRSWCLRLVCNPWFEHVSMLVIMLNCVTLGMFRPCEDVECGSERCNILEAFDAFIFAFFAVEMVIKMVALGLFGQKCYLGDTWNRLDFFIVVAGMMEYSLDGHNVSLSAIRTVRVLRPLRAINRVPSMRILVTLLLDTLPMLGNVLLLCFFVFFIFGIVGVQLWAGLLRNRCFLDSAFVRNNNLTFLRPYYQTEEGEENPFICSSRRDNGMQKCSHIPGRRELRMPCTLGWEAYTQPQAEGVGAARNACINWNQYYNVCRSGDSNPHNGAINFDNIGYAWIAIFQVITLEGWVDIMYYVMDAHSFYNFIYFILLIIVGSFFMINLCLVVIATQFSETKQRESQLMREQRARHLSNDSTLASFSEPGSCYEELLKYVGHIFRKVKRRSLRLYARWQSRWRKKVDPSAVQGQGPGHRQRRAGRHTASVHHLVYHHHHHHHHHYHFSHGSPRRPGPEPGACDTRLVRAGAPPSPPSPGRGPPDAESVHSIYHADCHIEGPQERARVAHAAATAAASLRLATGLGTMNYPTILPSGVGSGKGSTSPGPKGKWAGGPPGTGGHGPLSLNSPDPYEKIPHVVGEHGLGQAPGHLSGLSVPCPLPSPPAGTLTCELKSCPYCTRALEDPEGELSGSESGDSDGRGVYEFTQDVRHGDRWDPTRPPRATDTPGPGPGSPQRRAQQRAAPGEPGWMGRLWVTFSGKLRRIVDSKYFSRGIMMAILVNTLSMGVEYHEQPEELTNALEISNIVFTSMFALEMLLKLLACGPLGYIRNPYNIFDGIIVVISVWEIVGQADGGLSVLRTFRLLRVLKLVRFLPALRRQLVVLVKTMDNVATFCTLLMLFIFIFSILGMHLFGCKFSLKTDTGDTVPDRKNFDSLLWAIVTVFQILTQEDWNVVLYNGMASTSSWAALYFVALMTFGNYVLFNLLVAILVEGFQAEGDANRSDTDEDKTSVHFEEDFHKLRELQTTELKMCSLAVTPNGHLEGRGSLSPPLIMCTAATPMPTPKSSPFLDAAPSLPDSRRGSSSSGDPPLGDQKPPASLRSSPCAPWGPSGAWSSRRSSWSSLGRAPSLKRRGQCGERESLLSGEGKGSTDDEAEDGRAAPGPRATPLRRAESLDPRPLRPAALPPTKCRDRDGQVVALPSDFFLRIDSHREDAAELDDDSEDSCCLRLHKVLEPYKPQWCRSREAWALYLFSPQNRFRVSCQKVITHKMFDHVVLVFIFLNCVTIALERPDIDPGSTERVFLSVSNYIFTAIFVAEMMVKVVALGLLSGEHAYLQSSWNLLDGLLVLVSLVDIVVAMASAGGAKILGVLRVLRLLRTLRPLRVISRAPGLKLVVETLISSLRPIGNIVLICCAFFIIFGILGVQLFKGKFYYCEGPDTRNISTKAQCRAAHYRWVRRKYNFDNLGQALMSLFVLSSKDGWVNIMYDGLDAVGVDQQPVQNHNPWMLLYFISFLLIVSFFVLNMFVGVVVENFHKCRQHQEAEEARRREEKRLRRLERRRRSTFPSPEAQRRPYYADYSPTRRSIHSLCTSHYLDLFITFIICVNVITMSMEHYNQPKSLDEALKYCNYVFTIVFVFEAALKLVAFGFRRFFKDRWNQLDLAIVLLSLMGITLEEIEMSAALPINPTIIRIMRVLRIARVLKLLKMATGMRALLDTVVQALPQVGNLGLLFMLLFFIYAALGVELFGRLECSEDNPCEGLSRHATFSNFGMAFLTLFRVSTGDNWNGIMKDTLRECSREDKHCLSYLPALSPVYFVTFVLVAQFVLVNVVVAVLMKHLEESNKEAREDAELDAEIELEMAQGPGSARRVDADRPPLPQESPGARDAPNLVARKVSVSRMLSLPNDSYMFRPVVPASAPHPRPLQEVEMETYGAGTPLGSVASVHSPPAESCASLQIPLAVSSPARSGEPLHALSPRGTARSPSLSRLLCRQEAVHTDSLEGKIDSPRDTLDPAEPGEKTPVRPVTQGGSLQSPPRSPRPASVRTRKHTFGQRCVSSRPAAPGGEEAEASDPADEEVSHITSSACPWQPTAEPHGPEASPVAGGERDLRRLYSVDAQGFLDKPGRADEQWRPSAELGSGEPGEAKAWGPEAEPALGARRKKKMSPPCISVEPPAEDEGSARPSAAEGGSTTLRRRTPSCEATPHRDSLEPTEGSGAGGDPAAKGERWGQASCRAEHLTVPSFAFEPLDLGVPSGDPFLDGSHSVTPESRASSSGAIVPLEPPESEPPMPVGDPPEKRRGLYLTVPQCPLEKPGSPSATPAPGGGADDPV", "type": "functional"}, "[9]": {"experiment": "cells"}, "[10]": {"experiment": "DRD fibroblast viability loss – cell-based, non-viral oncogenic, luminescence, dose response (AID 1934)", "type": "functional", "conditions": "Homo sapiens"}, "[11]": {"target": "T1, Calpain-2 catalytic subunit (Sus scrofa, UniProt P43367)", "T1 sequence (P43367 whole entry)": "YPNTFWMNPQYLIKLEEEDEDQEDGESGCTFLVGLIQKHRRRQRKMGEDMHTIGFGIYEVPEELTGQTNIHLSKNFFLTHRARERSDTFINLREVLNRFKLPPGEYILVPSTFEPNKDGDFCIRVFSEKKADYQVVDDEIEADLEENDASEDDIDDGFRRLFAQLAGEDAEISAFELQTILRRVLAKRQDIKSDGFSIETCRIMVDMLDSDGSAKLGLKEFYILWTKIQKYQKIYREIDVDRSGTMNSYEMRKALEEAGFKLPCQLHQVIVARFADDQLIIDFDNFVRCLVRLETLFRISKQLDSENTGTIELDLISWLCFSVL", "experiment": "m-calpain protease blockers, concentration series – biochemical, fluorogenic peptide substrate, dose response (AID 1420)", "type": "functional"}, "[12]": {"experiment": "Trypanosoma cruzi growth suppression in host cells – NIH3T3 host cells, beta-gal luminescence, confirmation (AID 2044);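 also: intracellular parasites grown in NIH/3T3 mouse fibroblasts as host cells; luminescent beta-galactosidase reporter signal from transgenic T. cruzi replicating inside host cells; inhibitors lower the luminescence signal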", "type": "functional, cell-based"}, "[13]": {"target": "Cytochrome P450 3A4 (Homo sapiens, UniProt P08684)"}, "[14]": {"experiment": "NIH3T3 cell viability loss – ATP luminescence, mouse fibroblasts, counter-screen, dose response (AID 2010);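 also: cells exposed to compound for about 90 hours before reading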", "type": "functional, cell-based"}, "[15]": {"tested_on": "BJ", "experiment": "cells", "type": "functional, cell-based", "conditions": "Homo sapiens"}, "[16]": {"experiment": "NIH-3T3 fibroblast cytotoxicity, dose response, cytotoxicity control, cell-based, fluorescence, Alamar Blue, secondary assay (AID 2327);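 also: NIH-3T3 mouse fibroblasts cultured with fluconazole at 8 µg/mL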", "type": "functional"}, "[17]": {"target": "Ephrin type-A receptor 4 (Mus musculus, UniProt Q03137)", "experiment": "EphA4 ligand-binding antagonists – biochemical, colorimetric, mouse EphA4, primary screen (AID 689)", "type": "functional"}, "[18]": {"tested_on": "BJ", "experiment": "BJ-TERT-LT-ST fibroblast viability loss – cell-based, RAS-independent, luminescence, dose response (AID 1935);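 also: BJ fibroblasts immortalized with TERT plus LT and ST oncogenes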", "type": "functional", "conditions": "Homo sapiens"}, "[19]": {"target": "Nonstructural protein 1 (Influenza A virus, UniProt Q194T2)", "sequence (Q194T2 whole entry)": "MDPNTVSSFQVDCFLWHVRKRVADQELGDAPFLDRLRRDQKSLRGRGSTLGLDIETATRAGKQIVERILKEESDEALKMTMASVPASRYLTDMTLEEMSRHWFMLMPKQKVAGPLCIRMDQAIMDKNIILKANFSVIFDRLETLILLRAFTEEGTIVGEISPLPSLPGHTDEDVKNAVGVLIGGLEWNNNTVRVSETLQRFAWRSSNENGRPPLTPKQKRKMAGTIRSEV", "type": "functional, Influenza A virus (A/California/07/2009(H1N1))"}, "[20]": {"experiment": "fluconazole-exposed Candida albicans growth modulators – fluorescence, retest, confirmation (AID 2467)", "type": "functional, cell-based"}}, "note": "The source made the active and inactive calls.", "data": [{"smiles": "COC(=O)c1sc2nc(-c3ccco3)ccc2c1N", "values": [{"measurement": "IC50", "setting": "[1]", "value": "> 50 µM (not active)"}, {"measurement": "AC50", "setting": "[2]", "value": "2.84 µM (active)"}, {"measurement": "IC50", "setting": "[3]", "value": "34.7 µM (not active)"}]}, {"smiles": "Oc1ccc(-c2n[nH]cc2-c2nc3ccccc3s2)c(O)c1", "values": [{"measurement": "IC50", "setting": "[4]", "value": "> 35 µM (not active)"}, {"measurement": "IC50", "setting": "[5]", "value": "> 35 µM (not active)"}]}, {"smiles": "O=C(O)c1ccc(N(c2ccccc2)c2ccccc2)cc1", "values": [{"measurement": "IC50", "setting": "[6]", "value": "60.3 µM (active)"}, {"measurement": "IC50", "setting": "[4]", "value": "> 35 µM (not active)"}, {"measurement": "IC50", "setting": "[5]", "value": "31.9 µM (not active)"}]}, {"smiles": "CCN1/C(=C/c2ccc3cccc(C)c3[n+]2CC)Sc2ccccc21", "values": [{"measurement": "EC50", "setting": "[7]", "value": "0.37 µM (inconclusive)"}, {"measurement": "EC50", "setting": "[8]", "value": "1.77 µM (active)"}, {"measurement": "EC50", "setting": "[9]", "value": "0.031 µM (active)"}, {"measurement": "EC50", "setting": "[10]", "value": "13.6 µM (inconclusive)"}, {"measurement": "IC50", "setting": "[11]", "value": "> 50 µM (not active)"}, {"measurement": "EC50", "setting": "[12]", "value": "< 0.1 µM (active)"}, {"measurement": "AC50", "setting": "[13]", "value": "8.91 µM (inconclusive)"}, {"measurement": "EC50", "setting": "[14]", "value": "5.26 µM (active)"}, {"measurement": "EC50", "setting": "[15]", "value": "1.19 µM (active)"}, {"measurement": "EC50", "setting": "[16]", "value": "18.6 µM (inconclusive)"}, {"measurement": "IC50", "setting": "[17]", "value": "44.1 µM (active)"}, {"measurement": "EC50", "setting": "[18]", "value": "1.17 µM (inconclusive)"}, {"measurement": "IC50", "setting": "[19]", "value": "> 100 µM (active)"}, {"measurement": "EC50", "setting": "[20]", "value": "< 0.03 µM (active)"}]}]}
